≈ marks a conversion by molar mass, not a printed value. Read-outs that look alike come from different tables or passages of the source.
What was measured:
Staph. aureus 01A005 [1] = test: minimum inhibitory concentration (MIC), Staph. aureus 01A005; format: cell-based; settings: Staphylococcus aureus; in vitro; Staph. aureus 01A005, Gram-positive
Excerpt: (§1) The oleandomycin compounds of the present invention are effective in inhibiting the growth of microorganisms, especially Gram-positive microorganisms. The high activity against Gram-positive organisms shown by these compounds is contrasted in some respects with the lower activity against Gram-negative organisms. The following table illustrates the in vitro antibiotic spectrum of the compounds of the instant invention. The tests were run according to the "minimum inhibitory concentration"(MIC) procedure of Ericsson and Sherris [H. M. Ericsson and J. C. Sherris, Acta. Pathol. Microbiol. Scand. Suppl., 217B 64 (1971)].

Salm. typhm. 58D009 = test: minimum inhibitory concentration (MIC), Salm. typhm. 58D009; format: cell-based; settings: in vitro; Salm. typhm. 58D009, Gram-negative
Excerpt: as §1

E. coli 51A266 = test: minimum inhibitory concentration (MIC), E. coli 51A266; format: cell-based; settings: Escherichia coli; in vitro; E. coli 51A266, Gram-negative
Excerpt: as §1

Staph. aureus 01A400R = test: minimum inhibitory concentration (MIC), Staph. aureus 01A400R; format: cell-based; settings: Staphylococcus aureus, read-out: MIC Values, Staph. aureus 01A400R
Excerpt: as §1

Klebsiella pn. 53A009 = test: minimum inhibitory concentration (MIC), Klebsiella pn. 53A009; format: cell-based; settings: in vitro; Klebsiella pn. 53A009, Gram-negative
Excerpt: as §1

B. subtilis = test: minimum inhibitory concentration (MIC), B. subtilis; format: cell-based; settings: Bacillus subtilis, in vitro, Gram-positive
Excerpt: as §1

Staph. aureus 01A005 [2] = test: protection against in vivo infection of mice infected with Staph. aureus 01A005; settings: subcutaneous or oral administration to mice infected with Staph. aureus 01A005; compared with natural oleandomycin
Procedure: The ability of the compounds of the present invention to protect against in vivo infections was determined by subcutaneous or oral administration to mice infected with Staph. aureus 01A005. Using the test method described by Retsema [J. A. Retsema et al., Antimicr.

[3] = in vitro, Staph. aureus 01A400R, Gram-positive

| Structure (SMILES) | MIC (Staph. aureus 01A005 [1]) [µg/mL] | MIC (Salm. typhm. 58D009) [µg/mL] | MIC (E. coli 51A266) [µg/mL] | MIC (Staph. aureus 01A400R; [3]) [µg/mL] | MIC (Klebsiella pn. 53A009) [µg/mL] | MIC (B. subtilis) [µg/mL] | protection against infection (Staph. aureus 01A005 [2]) | MIC (Staph. aureus 01A400R; 01A400R) [µg/mL] |
| --- | --- | --- | --- | --- | --- | --- | --- | --- |
| C=C1CC(C)C(OC2OC(C)CC(N(C)C)C2OC(C)=O)C(C)C(OC2CC(OC)C(OC(C)=O)C(C)O2)C(C)C(=O)OC(C)C(C)C(OC(C)=O)C(C)C1=O (centres unmarked) [Compound II Ac Ac Ac, 8,8a-Deoxy-8,8a-Methylene-2',4",11-Triacetyloleandomycin] | 25 (≈ 31.3 µM) | > 200 | > 200 | 200 (≈ 251 µM) | > 200 |  |  |  |
| C=C1CC(C)C(OC2OC(C)CC(N(C)C)C2OC(C)=O)C(C)C(OC2CC(OC)C(OC(C)=O)C(C)O2)C(C)C(=O)OC(C)C(C)C(OC(=O)C(F)(F)F)C(C)C1=O (centres unmarked) [Compound II Ac Ac drawing 7, 8,8a-Deoxy-8,8a-Methylene-2',4"-Diacetyl-11-Trifluoroacetyloleandomycin] | 25 (≈ 29.3 µM) | > 200 | > 200 | 200 (≈ 235 µM) | > 200 | 25 (≈ 29.3 µM) |  |  |
| C=C1CC(C)C(OC2OC(C)CC(N(C)C)C2OC(C)=O)C(C)C(OC2CC(OC)C(O)C(C)O2)C(C)C(=O)OC(C)C(C)C(OC(C)=O)C(C)C1=O (centres unmarked) [Compound II Ac H Ac, 8,8a-Deoxy-8,8a-Methylene-2',11-Diacetyloleandomycin] | 3.12 (≈ 4.13 µM) | > 200 | > 200 | > 200 | > 200 | 3.12 (≈ 4.13 µM) |  |  |
| C=C1CC(C)C(OC2OC(C)CC(N(C)C)C2O)C(C)C(OC2CC(OC)C(O)C(C)O2)C(C)C(=O)OC(C)C(C)C(O)C(C)C1=O (centres unmarked) [Compound II H H H, 8,8a-Deoxy-8,8a-Methylene-Oleandomycin] | 6.25 (≈ 9.3 µM) |  | > 200 | 25 (≈ 37.2 µM) | > 200 |  | protection against infection which was comparable to natural oleandomycin |  |
| COC1CC(OC2C(C)C(=O)OC(C)C(C)C(OC(C)=O)C(C)C(=O)C3(CC3)CC(C)C(OC3OC(C)CC(N(C)C)C3OC(C)=O)C2C)OC(C)C1OC(C)=O (centres unmarked) [Compound III Ac Ac Ac, 8,8a-Deoxy-8,8a-Cyclopropyl-2',4",11-Triacetyloleandomycin] | 1.56 (≈ 1.92 µM) | > 200 | > 200 | 12.5 (≈ 15.4 µM) | > 200 | 3.12 (≈ 3.84 µM) |  |  |
| COC1CC(OC2C(C)C(=O)OC(C)C(C)C(O[Si](C)(C)C)C(C)C(=O)C3(CC3)CC(C)C(OC3OC(C)CC(N(C)C)C3OC(C)=O)C2C)OC(C)C1OC(C)=O (centres unmarked) [Compound III Ac Ac Me3 Si, 8,8a-Deoxy-8,8a-Cycloproyl-2',4"-Diacetyl-11-Trimethylsilyloleandomycin] | 3.12 (≈ 3.7 µM) | > 200 | > 200 |  | > 200 | 12.5 (≈ 14.8 µM) |  | > 200 |
| COC1CC(OC2C(C)C(=O)OC(C)C(C)C(OC(C)=O)C(C)C(=O)C3(CC3)CC(C)C(OC3OC(C)CC(N(C)C)C3OC(C)=O)C2C)OC(C)C1O (centres unmarked) [Compound III Ac H Ac, 8,8a-Deoxy-8,8a-Cyclopropyl-2',11-Diacetyloleandomycin] | 0.2 (≈ 0.26 µM) | > 200 | > 200 | 3.12 (≈ 4.05 µM) | > 200 | 0.78 (≈ 1.01 µM) |  |  |
| COC1CC(OC2C(C)C(=O)OC(C)C(C)C(O)C(C)C(=O)C3(CC3)CC(C)C(OC3OC(C)CC(N(C)C)C3O)C2C)OC(C)C1O (centres unmarked) [Compound III H H H, 8,8a-Deoxy-8,8a-Cyclopropyloleandomycin] | 0.2 (≈ 0.292 µM) | > 200 | > 200 | 1.56 (≈ 2.27 µM) | > 200 | 0.39 (≈ 0.569 µM) | protection against infection which was comparable to natural oleandomycin |  |

— patent US4069379A, “Semi-synthetic oleandomycins” (Pfizer Inc., priority 1976, dated 1978)
